Literature values, collected in patent publication US12403100B2, “Natural combination products and methods for regulation of total blood cholesterol” (priority 2018, dated 2025).
Each block holds one compound with its values, some of them ahead of it.

Legend:
[1] = in vivo
[2] = in vivo; remark: listed apart in the source
CYP 2C9 = CYP 2C9 (Homo sapiens, UniProt P11712)
[3] = system: hyperlipidemic patients with hypertension; conditions: intake of 20 mg of lovastatin, same time (8 weeks)
[4] = not given; remark: listed apart in the source
[5] = Reynoso et al. 2002
[6] = not given; remark: listed apart in the source
[7] = aqueous-acidic medium
CYP 3A4 = CYP 3A4 (Homo sapiens, UniProt P08684)
Sequence of CYP 3A4 (P08684 whole entry): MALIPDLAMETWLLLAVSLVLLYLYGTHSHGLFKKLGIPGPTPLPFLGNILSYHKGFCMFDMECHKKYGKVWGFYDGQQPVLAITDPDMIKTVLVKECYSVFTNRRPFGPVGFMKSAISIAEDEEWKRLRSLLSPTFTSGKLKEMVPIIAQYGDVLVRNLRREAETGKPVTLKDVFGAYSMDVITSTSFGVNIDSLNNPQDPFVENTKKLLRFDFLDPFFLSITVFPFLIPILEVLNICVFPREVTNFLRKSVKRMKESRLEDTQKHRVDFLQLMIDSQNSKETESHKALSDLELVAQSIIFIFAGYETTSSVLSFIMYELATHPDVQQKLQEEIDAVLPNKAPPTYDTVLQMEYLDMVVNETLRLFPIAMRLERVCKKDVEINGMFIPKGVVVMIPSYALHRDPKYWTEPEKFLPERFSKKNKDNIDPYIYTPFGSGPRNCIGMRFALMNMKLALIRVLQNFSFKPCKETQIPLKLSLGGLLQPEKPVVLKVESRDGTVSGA

[8] = target: T1, pancreatic cholesterol esterase (Sus scrofa, UniProt A0A286ZKB1); conditions: depending on their concentration
T1 sequence (A0A286ZKB1 1-682): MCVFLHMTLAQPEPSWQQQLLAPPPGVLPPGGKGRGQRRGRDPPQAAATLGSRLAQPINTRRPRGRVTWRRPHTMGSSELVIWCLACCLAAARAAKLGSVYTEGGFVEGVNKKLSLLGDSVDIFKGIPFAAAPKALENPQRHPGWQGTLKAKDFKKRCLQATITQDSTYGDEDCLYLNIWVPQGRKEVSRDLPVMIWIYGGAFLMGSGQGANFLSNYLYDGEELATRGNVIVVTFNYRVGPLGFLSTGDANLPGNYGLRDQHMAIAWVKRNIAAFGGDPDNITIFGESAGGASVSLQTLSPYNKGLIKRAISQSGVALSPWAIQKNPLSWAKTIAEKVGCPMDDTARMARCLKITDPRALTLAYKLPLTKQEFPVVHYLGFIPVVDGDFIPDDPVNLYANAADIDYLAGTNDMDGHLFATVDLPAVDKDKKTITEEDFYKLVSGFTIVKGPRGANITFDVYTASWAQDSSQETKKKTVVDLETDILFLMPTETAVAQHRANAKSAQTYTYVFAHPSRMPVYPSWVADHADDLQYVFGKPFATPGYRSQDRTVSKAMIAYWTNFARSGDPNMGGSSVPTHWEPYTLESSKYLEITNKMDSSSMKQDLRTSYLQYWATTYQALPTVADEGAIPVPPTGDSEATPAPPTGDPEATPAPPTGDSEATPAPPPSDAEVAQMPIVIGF

lipoprotein mycelia = conditions: concentration of 0.2 mg/mL

Sequence of CYP 2C9 (P11712 whole entry): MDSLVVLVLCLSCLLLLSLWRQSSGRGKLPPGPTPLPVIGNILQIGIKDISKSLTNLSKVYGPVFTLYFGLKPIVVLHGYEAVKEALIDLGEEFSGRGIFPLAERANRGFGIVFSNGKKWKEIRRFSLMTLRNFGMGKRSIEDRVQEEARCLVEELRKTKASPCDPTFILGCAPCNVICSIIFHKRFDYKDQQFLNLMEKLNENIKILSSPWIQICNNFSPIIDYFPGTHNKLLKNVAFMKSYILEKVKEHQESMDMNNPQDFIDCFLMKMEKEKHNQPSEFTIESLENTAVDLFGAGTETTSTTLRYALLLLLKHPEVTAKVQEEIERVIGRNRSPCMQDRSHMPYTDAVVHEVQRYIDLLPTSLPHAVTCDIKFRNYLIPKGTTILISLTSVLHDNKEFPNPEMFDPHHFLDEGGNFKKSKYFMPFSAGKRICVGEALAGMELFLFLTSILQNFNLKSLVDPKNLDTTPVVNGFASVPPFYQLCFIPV

Metabolism by CYP450 (CYP450): Yes
Plasma half-life [1]: 1.2 h
Passing through the blood-brain barrier [2]: No
lipophilic or hydrophilic: lipophilic
metabolized by CYP 2C9 (CYP 2C9): metabolized
Compound: CC(C)n1c(/C=C/C(O)CC(O)CC(=O)O)c(-c2ccc(F)cc2)c2ccccc21 (centres unmarked) [Fluvastatin]

Compound: CC[C@H](C)C(=O)O[C@H]1C[C@@H](C)C=C2C=C[C@H](C)[C@H](CC[C@@H]3C[C@@H](O)CC(=O)O3)[C@H]21 [Lovastatin]
reduction in cholesterol [3]: 19%
Absorption (%) [1]: 31%
Plasma half-life [1]: 2 to 4 h
Renal excretion (%) [1]: 30%
Binding to Plasma proteins (%) (plasma proteins): 95%
bound to plasma proteins (plasma proteins; lovastatin and its metabolites): > 95%
lipophilic or hydrophilic: lipophilic
solubility in fat [4]: dissolves more easily in fat
solubility in water [4]: difficult to dissolve in water
absorbed from the digestive tract [5]: ~30%
remaining share of the maximal concentration ([6]; after about 24 hours): 10%
absorbed in the gastrointestinal tract ([6]; from the taken dose): about 30%
passage through the placental barrier ([6]; in vivo): passes through the placental barrier
share converted to beta hydroxyl acid ([6]; in vivo): about 30%
time to maximal hypolipidemic effect ([6]; in vivo): 4-6 weeks
time to overt hypolipidemic effect ([6]; in vivo): 2 weeks
time until maximal concentration is reached ([6]; in vivo): about 2 hours
eliminated in excrement ([6]; taken orally): 83%
eliminated in the urine ([6]; taken orally): 10%
energy released by the reverse process (hydrolysis) [7]: 2.42 kcal/mol

solubility in fat [4]: with more difficultly in fat
solubility in water [4]: dissolves easily in water
energy required for lactonization of mevinolinic acid in lovastatin [7]: 4.93 kcal/mol
Compound: CC[C@H](C)C(=O)O[C@H]1C[C@@H](C)C=C2C=C[C@H](C)[C@H](CC[C@@H](O)C[C@@H](O)CC(=O)O)[C@H]21 [Mevinolinic acid]

Metabolism by CYP450 (CYP450): No
Absorption (%) [1]: 35%
Plasma half-life [1]: 0.9 to 1.6 h
Renal excretion (%) [1]: 60%
Binding to Plasma proteins (%) (plasma proteins): 40-50%
metabolized by CYP 3A4 (CYP 3A4): not metabolized
Passing through the blood-brain barrier [2]: No
lipophilic or hydrophilic: hydrophilic
Compound: CC[C@H](C)C(=O)O[C@H]1C[C@H](O)C=C2C=C[C@H](C)[C@H](CC[C@@H](O)C[C@@H](O)CC(=O)O)[C@H]21 [Pravastatin]

Plasma half-life [1]: 1.3 to 2.4 h
Compound: CCC(C)(C)C(=O)O[C@H]1C[C@@H](C)C=C2C=C[C@H](C)[C@H](CC[C@@H]3C[C@@H](O)CC(=O)O3)[C@H]21 [Simvastatin]

Compound: O=C(O)c1cc(O)c(O)c(O)c1 [gallic acid]
inhibition of pancreatic cholesterol ester [8]: significantly inhibit
reduction of the formation of lipoprotein mycelia (lipoprotein mycelia): 27.26±2.17%

metabolized by CYP 3A4 (CYP 3A4): not metabolized
lipophilic or hydrophilic: hydrophilic
metabolized by CYP 2C9 (CYP 2C9): metabolized
Compound: CC(C)c1nc(N(C)S(C)(=O)=O)nc(-c2ccc(F)cc2)c1/C=C/[C@@H](O)C[C@@H](O)CC(=O)O [rosuvastatin]

Compound: catechin
inhibition of pancreatic cholesterol ester [8]: significantly inhibit
reduction of the formation of lipoprotein mycelia (lipoprotein mycelia): 11.88±0.75%
